pIC50: −log10 of the molar value. “And” between values parts separate entries of the source, which are not always exact repeats. Equal entries are not always repeated.
Tested on: 266295-075-R-J1-PDC spheroid viability
Assay: Anticancer human tumor 266295-075-R-J1-PDC patient-derived head and neck squamous carcinoma cell line growth inhibition [POLQ]
Details: spheroids with HUVEC and MSC; for viability, T/C: stronger effect = lower value
Protocol: Multicellular complex tumor spheroid response to Polymerase (POL) inhibitors (novobiocin, ART-558, RP6685) in combination with a variety of drugs and investigational agents in selected tumor cell lines
The POL inhibitors (novobiocin, ART-558, and RP6685) were evaluated both individually and in combination with standard of care and investigational anticancer small molecules within a complex spheroid model of solid tumors. . Complex spheroids include a stromal component modeled by human endothelial cells (HUVEC) and fibroblasts modeled by human mesenchymal stem cells (MSCs). The concentration ranges selected for each drug and investigational agent were based upon clinically achievable concentrations if the clinical Cmax of the agent was known.
Compounds. The drugs and investigational agents: novobiocin (NSC847541), ART-558 (NSC835418), RP-6685 (NSC848927), peposertib (NSC802822), ceralasertib (NSC780249), elimusertib (NSC800525), camonsertib (NSC841442), AZD-1390 (NSC803789), olaparib (NSC753686), talazoparib (NSC767125), rucaparib (NSC756644), sotorasib (NSC818433), MRTX-1133 (NSC836407), SN-38 (NSC673596), topotecan (NSC609699), epotoside (NSC141540), doxorubicin (NSC123127), gemcitabine (NSC613327), 5-fluorouracil (NSC19893), paclitaxel (NSC125973), vemurafenib (NSC761431), MSA-2 (NSC828583), SN-011 (NSC837082), adavosertib (NSC754352), prexasertib (NSC758257), carboplatin (NSC241240) and oxaliplatin (NSC266046), were obtained from the National Cancer Institute (NCI) Developmental Therapeutics Program Chemical Repository (21). The FDA-approved anticancer drug set is available from the Developmental Therapeutics Program at https://dtp.cancer.gov/organization/dscb/obtaining/. […] The stock solutions were prepared in dimethyl sulfoxide (DMSO, Sigma-Aldrich, St. Louis, MO, cat. D2650), except for the platinum compounds which were prepared in saline (Quality Biological, Gaithersburg, MD, cat. 114-055-101), at 800-fold the tested concentration and stored at -70 degrees C prior to their use. All drugs and investigational agents were tested over a range starting from a high concentration at or near the clinical Cmax and decreasing in half-log increments. If the clinical Cmax for an agent had not been determined, the highest concentration tested was 10 microM, except for SN-38, which was tested at a high concentration of 1 microM.
Cell Culture. All cells were maintained in an incubator at 37 degrees C and 5% CO2 with 95% humidity. The PDC lines were cultured according to standard operating procedures established by the NCI PDMR (https://pdmr.cancer.gov). Table 3 of the manuscript, lists the cell lines along with the number of the three cell types plated to form the mct-spheroids and media for tumor cell growth. After thawing, all PDC lines, except 997537-175-T-J1-PDC and 415267-285-R-J2-PDC, were cultured in Matrigel-coated flasks prepared with a working solution of 1X Ham's F-12 nutrient mix, without supplementation (Thermo Fisher Scientific, cat. 11765054), 100 U/mL penicillin-streptomycin (Thermo Fisher Scientific, cat. 15140122), and 2.5% Matrigel (Corning Inc., Corning, NY, cat. 354248) for the first three passages. The two PDC lines 997537-175-T-J1-PDC and 415267-285-R-J2-PDC were cultured on uncoated flasks. The 857933-349-R-J2-PDC line was cultured in 6C/Colon 1B media containing advanced DMEM/F-12 (Thermo Fisher Scientific, cat. 12634028), 10 mM HEPES (Thermo Fisher Scientific, cat. 15630080), 1X GlutaMAX supplement (Thermo Fisher Scientific, cat. 35050061), 0.1 mg/mL primocin (InvivoGen, San Diego, CA, cat. ant-pm-2), 10% defined fetal bovine serum, heat inactivated (HyClone Laboratories Inc., Logan, UT, cat. SH30070.03HI), 50% L-WRN conditioned media (ATCC, cat. CRL-3276), 1.25 mM N-Acetyl-L-cysteine (Sigma-Aldrich, cat. A9165), 10 mM nicotinamide (Sigma-Aldrich, cat. N0636), 1X B-27 supplement (Thermo Fisher Scientific, cat. 17504044), 1X N-2 supplement (Thermo Fisher Scientific, cat. […]
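Further: spheroids exposed to compounds for seven days before readout.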

In the case of `COc1cc(C2c3cc4c(cc3C(OC3OC5COC(C)OC5C(O)C3O)C3COC(=O)C23)OCO4)cc(OC)c1O` (stereo not drawn), the viability, T/C (compound 0.0316 µM) was 84.2% and 123% and 88.1%, the viability, T/C (compound 0.1 µM) was 80.5% and 94.5% and 116% and the viability, T/C (compound 0.316 µM) was 92.3% and 110% and 112%. For the same molecule, the viability, T/C (compound 1 µM) was 77.7% and 88% and 98.4%, the viability, T/C (compound 3.16 µM) was 79.7% and 84.9% and 93.1% and the viability, T/C (compound 10 µM) was 72.6% and 84.4% and 82.6%. For the same molecule, the pIC50 (curve of compound) was < 5.00.

For `CCc1cc2c(N3CCc4c(cc(Cn5ccnc5)cc4-c4cn(C)nc4C(F)(F)F)C3=O)cc(C)nc2c(OC)n1`, the viability, T/C (compound 0.0316 µM) was 98.5% and 103% and 90.3%, the viability, T/C (compound 0.1 µM) was 95.8% and 103% and 98.5% and the viability, T/C (compound 0.316 µM) was 91.9% and 89.5% and 109%. The viability, T/C (compound 1 µM) was 120% and 97% and 110%, the viability, T/C (compound 3.16 µM) was 123% and 113% and 127% and the viability, T/C (compound 10 µM) was 128% (2×) and 130%. For the same molecule, the pIC50 (curve of compound) was < 5.00.

`C#Cc1c(F)ccc2cc(O)cc(-c3ncc4c(N5CC6CCC(C5)N6)nc(OCC56CCCN5CC(F)C6)nc4c3F)c12` (stereo not drawn) + Nc1ccc(C#CCN(C(=O)Cc2ncc(C(F)(F)F)cc2C(F)(F)F)c2ccc(F)cc2)nn1 was tested, and the pIC50 (curve of first compound, second compound 0.0316 µM) was < 5.00, the pIC50 (curve of first compound, second compound 0.1 µM) was 5.13 and the pIC50 (curve of first compound, second compound 0.316 µM) was 5.08. For the same molecule, the pIC50 (curve of first compound, second compound 1 µM) was < 5.00, the pIC50 (curve of first compound, second compound 3.16 µM) was < 5.00 and the pIC50 (curve of first compound, second compound 10 µM) was < 5.00. It also gave a viability, T/C (second compound 0.0316 µM, first compound 0.0316 µM) of 86.8%, a viability, T/C (second compound 0.0316 µM, first compound 0.1 µM) of 89% and a viability, T/C (second compound 0.0316 µM, first compound 0.316 µM) of 82.9%. The viability, T/C (second compound 0.0316 µM, first compound 1 µM) was 71.6%, the viability, T/C (second compound 0.0316 µM, first compound 3.16 µM) was 60.8% and the viability, T/C (second compound 0.0316 µM, first compound 10 µM) was 50%. The viability, T/C (second compound 0.1 µM, first compound 0.0316 µM) was 90.2%, the viability, T/C (second compound 0.1 µM, first compound 0.1 µM) was 103% and the viability, T/C (second compound 0.1 µM, first compound 0.316 µM) was 75.2%. It also gave a viability, T/C (second compound 0.1 µM, first compound 1 µM) of 81%, a viability, T/C (second compound 0.1 µM, first compound 3.16 µM) of 67% and a viability, T/C (second compound 0.1 µM, first compound 10 µM) of 43.7%. The viability, T/C (second compound 0.316 µM, first compound 0.0316 µM) was 89.2%, the viability, T/C (second compound 0.316 µM, first compound 0.1 µM) was 71.7% and the viability, T/C (second compound 0.316 µM, first compound 0.316 µM) was 63%. It also gave a viability, T/C (second compound 0.316 µM, first compound 1 µM) of 84.1%, a viability, T/C (second compound 0.316 µM, first compound 3.16 µM) of 60.7% and a viability, T/C (second compound 0.316 µM, first compound 10 µM) of 47.3%. For the same molecule, the viability, T/C (second compound 1 µM, first compound 0.0316 µM) was 114%, the viability, T/C (second compound 1 µM, first compound 0.1 µM) was 84% and the viability, T/C (second compound 1 µM, first compound 0.316 µM) was 70.7%. For the same molecule, the viability, T/C (second compound 1 µM, first compound 1 µM) was 68.3%, the viability, T/C (second compound 1 µM, first compound 3.16 µM) was 56.9% and the viability, T/C (second compound 1 µM, first compound 10 µM) was 54.7%. It also gave a viability, T/C (second compound 3.16 µM, first compound 0.0316 µM) of 80.8%, a viability, T/C (second compound 3.16 µM, first compound 0.1 µM) of 90.6% and a viability, T/C (second compound 3.16 µM, first compound 0.316 µM) of 74.7%. For the same molecule, the viability, T/C (second compound 3.16 µM, first compound 1 µM) was 68.7%, the viability, T/C (second compound 3.16 µM, first compound 3.16 µM) was 71.6% and the viability, T/C (second compound 3.16 µM, first compound 10 µM) was 64.1%. The viability, T/C (second compound 10 µM, first compound 0.0316 µM) was 91.8%, the viability, T/C (second compound 10 µM, first compound 0.1 µM) was 73.9% and the viability, T/C (second compound 10 µM, first compound 0.316 µM) was 82.5%. For the same molecule, the viability, T/C (second compound 10 µM, first compound 1 µM) was 63.8%, the viability, T/C (second compound 10 µM, first compound 3.16 µM) was 64.1% and the viability, T/C (second compound 10 µM, first compound 10 µM) was 52.4%.

`C=CCn1c(=O)c2cnc(Nc3ccc(N4CCN(C)CC4)cc3)nc2n1-c1cccc(C(C)(C)O)n1` was tested, and the viability, T/C (compound 0.00316 µM) was 98.5% and 82.4% and 90.4%, the viability, T/C (compound 0.01 µM) was 86.6% and 97.5% and 99.7% and the viability, T/C (compound 0.0316 µM) was 102% and 93.3% and 99.6%. The viability, T/C (compound 0.1 µM) was 127% and 114% and 84.3%, the viability, T/C (compound 0.316 µM) was 83% and 93.8% and 89.9% and the viability, T/C (compound 1 µM) was 70% and 70.6% and 63.8%. For the same molecule, the pIC50 (curve of compound) was < 6.00.
